In paper PMC8699473, “An Easily Expandable Multi-Drug LC-MS Assay for the Simultaneous Quantification of 57 Oral Antitumor Drugs in Human Plasma” (Cancers, 2021):

Assay: Short-term stability in spiked pooled human plasma (bench-top, 4 °C, 56 °C)

| Compound | Short-time stability (1h, 56°C) Accuracy [%] (validation standard 2xLLOV) | Short-time stability (24h, 4°C, without daylight) Accuracy [%] (validation standard 2xLLOV) | Short-time stability (24h, RT, with daylight) Accuracy [%] (validation standard 2xLLOV) | Short-time stability (24h, RT, without daylight) Accuracy [%] (validation standard 2xLLOV) | Short-time stability (1h, 56°C) Accuracy [%] (validation standard LLOV) | Short-time stability (24h, 4°C, without daylight) Accuracy [%] (validation standard LLOV) | Short-time stability (24h, RT, with daylight) Accuracy [%] (validation standard LLOV) | Short-time stability (24h, RT, without daylight) Accuracy [%] (validation standard LLOV) | Short-time stability (1h, 56°C) Accuracy [%] (validation standard MOV) | Short-time stability (24h, 4°C, without daylight) Accuracy [%] (validation standard MOV) | Short-time stability (24h, RT, with daylight) Accuracy [%] (validation standard MOV) | Short-time stability (24h, RT, without daylight) Accuracy [%] (validation standard MOV) | Short-time stability (1h, 56°C) Accuracy [%] (validation standard ULOV) | Short-time stability (24h, 4°C, without daylight) Accuracy [%] (validation standard ULOV) | Short-time stability (24h, RT, with daylight) Accuracy [%] (validation standard ULOV) | Short-time stability (24h, RT, without daylight) Accuracy [%] (validation standard ULOV) |
| --- | --- | --- | --- | --- | --- | --- | --- | --- | --- | --- | --- | --- | --- | --- | --- | --- |
| CS(=O)(=O)CCNCc1ccc(-c2ccc3ncnc(Nc4ccc(OCc5cccc(F)c5)c(Cl)c4)c3c2)o1 [Lapatinib] | 19.2 | 96.4 | 46.9 | 53.0 | -24.8 | 92.5 | 5.2 | 14.4 | 46.1 | 97.9 | 93.5 | 109.4 | 42.5 | 94.3 | 100.7 | 112.4 |
| O=C(Nc1cnn2ccc(N3CCC[C@@H]3c3cc(F)ccc3F)nc12)N1CC[C@H](O)C1 [Larotrectinib] | 58.9 | 104.3 | 109.3 | 102.4 | 44.4 | 107.8 | 115.6 | 100.1 | 58.2 | 99.9 | 106.3 | 110.8 | 50.9 | 98.3 | 105.3 | 104.5 |
| Nc1cccc2c1CN(C1CCC(=O)NC1=O)C2=O (stereo not shown) [Lenalidomide] | 39.6 | 107.4 | 54.9 | 49.6 |  | 83.0 | 81.5 |  | 20.6 | 97.8 | 58.7 | 54.1 | 18.5 | 90.4 | 51.9 | 50.9 |
| COc1cc2nccc(Oc3ccc(NC(=O)NC4CC4)c(Cl)c3)c2cc1C(N)=O [Lenvatinib] | 56.5 | 103.4 | 96.8 | 94.6 | 62.9 | 114.0 | 106.4 | 110.0 | 46.6 | 95.9 | 93.9 | 94.3 | 40.6 | 100.4 | 102.7 | 97.9 |
| C[C@H]1Oc2cc(cnc2N)-c2c(nn(C)c2C#N)CN(C)C(=O)c2ccc(F)cc21 [Lorlatinib] | 60.0 | 99.8 | 98.9 | 99.6 | 54.3 | 98.8 | 96.4 | 97.8 | 57.8 | 101.8 | 100.2 | 99.2 | 50.7 | 97.0 | 100.4 | 99.9 |
| CO[C@@H]1[C@H](N(C)C(=O)c2ccccc2)C[C@H]2O[C@]1(C)n1c3ccccc3c3c4c(c5c6ccccc6n2c5c31)C(=O)NC4 [Midostaurin] | 45.3 | 93.5 | 91.7 | 88.1 | 39.0 | 90.3 | 89.5 | 85.7 | 41.7 | 103.7 | 88.3 | 91.0 | 37.7 | 98.8 | 89.5 | 88.4 |
| Cc1cn(-c2cc(NC(=O)c3ccc(C)c(Nc4nccc(-c5cccnc5)n4)c3)cc(C(F)(F)F)c2)cn1 [Nilotinib] | 47.8 | 101.2 | 107.8 | 108.6 | 28.5 | 96.7 | 94.9 | 96.7 | 52.5 | 100.3 | 110.2 | 114.5 | 44.6 | 97.1 | 108.0 | 110.3 |
| COC(=O)c1ccc2c(c1)NC(=O)/C2=C(\Nc1ccc(N(C)C(=O)CN2CCN(C)CC2)cc1)c1ccccc1 [Nintedanib] | 48.8 | 103.5 | 102.5 | 105.4 | 56.0 | 96.7 | 99.4 | 96.1 | 51.2 | 100.1 | 104.3 | 103.0 | 43.9 | 88.8 | 105.8 | 102.1 |
| NC(=O)c1cccc2cn(-c3ccc([C@@H]4CCCNC4)cc3)nc12 [Niraparib] | 53.4 | 96.9 | 95.2 | 93.8 | 46.8 | 93.8 | 92.3 | 91.9 | 51.1 | 100.2 | 97.6 | 96.5 | 43.8 | 92.7 | 95.8 | 94.0 |
| O=C(c1cc(Cc2n[nH]c(=O)c3ccccc23)ccc1F)N1CCN(C(=O)C2CC2)CC1 [Olaparib] | 64.1 | 101.8 | 91.3 | 90.8 | 80.6 | 110.7 | 108.3 | 110.6 | 49.4 | 98.6 | 89.4 | 88.9 | 42.9 | 99.7 | 99.0 | 94.2 |
| Cc1[nH]c2ccccc2c1CCNCc1ccc(/C=C/C(=O)NO)cc1 [Panobinostat] | 27.6 | 81.5 | 53.1 | 45.4 | 1.9 | 66.1 | -0.2 | 52.8 | 48.8 | 93.6 | 92.2 | 96.2 | 46.3 | 89.2 | 96.0 | 100.4 |
| Nc1cccc2c1C(=O)N(C1CCC(=O)NC1=O)C2=O (stereo not shown) [Pomalidomide] | 21.3 | 94.1 | 51.2 | 51.3 | 38.4 | 92.5 | 42.4 | 42.6 | 20.6 | 96.7 | 51.3 | 51.2 | 16.9 | 88.6 | 43.6 | 43.8 |
| Cc1ccc(C(=O)Nc2ccc(CN3CCN(C)CC3)c(C(F)(F)F)c2)cc1C#Cc1cnc2cccnn12 [Ponatinib] | 48.3 | 96.6 | 98.7 | 98.1 |  |  |  |  | 50.8 | 100.1 | 99.8 | 102.6 | 43.1 | 93.3 | 97.8 | 98.9 |
